In patent US20220304945A1, “METHODS OF TREATING METABOLIC SYNDROME RELATED CONDITIONS USING RETINOIC ACID RECEPTOR AGONISTS” (Cornell University, priority 2014, published 2022):
Entries after “also recorded” stand apart in the source; their conditions may differ.

What was measured:
Assay type in all cases: in vivo, mouse
[1] = Serum triglyceride level measurement (bichromatic assay), Example 8; details: HF diet mice (Example 8); vs control diet
Description: (§1) Mice, diet, and drug treatment. WT male C57/BL6 male mice were maintained on either a standard laboratory chow-fed diet (CFD) with 13% kcal fat, (diet #5053, Lab Diet, Inc, St. Louis, Mo.) or a high fat, western style diet (HFD) with 60% kcals from fat, (diet #58126, Lab Diet, Inc., St. Louis, Mo.) for 4 months. One month after the start of the high fat diet treatment, the high fat diet group was further split into 2 groups for 3 months: i) high fat diet and the drinking water containing 1% DMSO; ii) high fat diet and the drinking water containing 1.5 mg/100 ml AC261066, a specific RARβ agonist. Then mice were sacrificed by cervical dislocation. Blood and various tissue samples were harvested.
Serum triglyceride level measurement. The analysis of serum triglyceride levels was carried out using a bichromatic assay at the Laboratory of Comparative Pathology of the Memorial Sloan-Kettering Cancer Center. Chow-fed diet (CFD) n=2; high fat diet (HFD) n=3; high fat diet+AC261066 (HFDAC) n=5.

α-SMA = α-SMA immunofluorescence of kidney, HF-fed mice; details: HF diet mice 4 months
Description: as §1
Combined oil red O and Immunofluorescence staining. Fresh mouse kidney samples were embedded in optimal cutting temperature (OCT) medium and immediately frozen to −70 centigrade. Cryosections were then fixed in 4% formaldehyde for 1 hr at room temp. Slides were then rinsed three times in deionized water (dH2O) for 30 s, followed by treatment with 0.5% Triton X-100 in PBS for 5 min. Sections were then washed three times with PBS for 5 min. Samples were with incubated 2% bovine serum albumin (BSA) for 30 min at room temperature to block for unspecific antibody binding. […]

TNF-α, RARβ2, LRAT mRNA = test: Semi-quantitative PCR of kidney, HF-fed mice; details: HF diet mice 4 months
Description: as §1
Semi-Quantitative PCR. Total RNA was extracted from mouse tissues using TRIzol reagent (Life technologies) and (1 μg) was used to synthesize cDNA. cDNA synthesis was performed at 42° C. for 1 h in a final volume of 20 μl using qScript (Quanta, MD). Semi-quantitative PCR were performed Taq DNA polymerase (Invitrogen, CA). Three step PCR was run as follows: 94° C. for 30 s, 58-64° C. for 45 s for primer annealing and 72° C. for 1 min for primer extension. The number of cycles for each primer pair for amplification in the linear range was determined experimentally. PCR products were resolved on 2% agarose gels and visualized by staining with ehtidium bromide. Primers for gene expression used were as follows: […]

HF-fed C57/BL6 mice = test: Metabolic studies (body weight, GTT) in HF-fed wild type mice, 4 months; details: obese HF-fed mice, 3.0 mg/100 ml drinking water
Protocol: Mice, diet, and drug treatment. Dietary Obesity Studies: Wild type (wt) male C57/BL6 male mice were maintained on either a standard laboratory chow-fed diet (Con) with 13% kcal fat, (diet #5053, Lab Diet, Inc, St. Louis, Mo.) or a high fat, western style diet (HFD) with 45% kcals from fat, (diet #58126, Lab Diet, Inc., St. Louis, Mo.) for 4 months. […]
Metabolic Measurements-Glucose tolerance was performed using an intraperitoneal glucose tolerance test (GTT) as previously described (Trasino et al., Vitamin A Deficiency Causes Hyperglycemia and Loss of Pancreatic β-Cell Mass, J Biol Chem. 2014 Dec. 1. pii: jbc.M114.616763). […] Tail vein blood glucose was measured at 20, 40, 60 and 120 minutes after injection using a FreeStyle Lite Blood Glucose Monitoring System (Abbott Diabetes Care, Inc. Alameda, Calif.). To determine insulin secretion responses to glucose, serum fractions were isolated between 0-60 minutes post glucose injections and insulin concentrations were measured using an Ultrasensitive Insulin ELISA Kit (Alpco, Inc. Salem, N.H.). Random blood glucose measurements were taken from tail veins of 4 mice per group at 2-3 random time points daily Means are expressed as±standard error of the mean (S.E.M) and P-values were calculated using one-way analysis of variance followed by Bonferroni post-hoc analysis.

## CCCCOCCOc1nc(-c2ccc(C(=O)O)c(F)c2)sc1C [AC261066]
[1]
  serum triglyceride levels: does not increase; also recorded: does not affect
α-SMA
  α-SMA positive areas in kidney: diminished; also recorded: not observed
TNF-α, RARβ2, LRAT mRNA
  kidney LRAT mRNA level: restores
  kidney RARβ2 mRNA level: restores; also recorded: did not have decreased
  kidney TNF-α mRNA level: reduces
HF-fed C57/BL6 mice
  body weights: significant reductions
